Experimental data reported in the METLIN SMRT retention time set (Domingo-Almenara et al. 2019).

Test: gradient 5% acetonitrile 3 min, to 50% in 2 min, to 85% in 15 min, held 3 min, 100 µL/min
Settings: column: Zorbax Extend-C18 2.1 x 50 mm; eluents: water / acetonitrile, 0.1% formic acid
How it was run: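 Retention times come from adduct peaks that were picked computationally and then checked by hand. The standards, pure and pooled in mixtures of ~100 molecules, were run on a Zorbax Extend-C18 column (2.1 × 50 mm, 1.8 μm) at 100 μL/min with water and acetonitrile, each with 0.1% formic acid. Detection was by quadrupole time-of-flight mass spectrometry in positive and negative ionization mode, with a dead volume of 40 μL and a dwell volume of 900 μL.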

**Q.** With `CC(C)c1csc(-c2csc(S(=O)(=O)NCc3ccc(Cl)cc3)c2)n1` as the molecule, how does the RP-LC retention time read?
**A.** 1160 s

**Q.** For `COc1ccccc1-c1nnc(-c2ccc(C)c(S(=O)(=O)N3CCC(C)CC3)c2)o1`, which RP-LC retention time is on record?
**A.** 1150 s

**Q.** For `N#Cc1ccccc1CN1C[C@@H](CO)[C@H](c2nc(C3CC3)no2)C1`, which RP-LC retention time is on record?
**A.** 607 s

**Q.** Which RP-LC retention time does the source give for `CCCn1cc(CCNC(=O)Nc2ccc3c(c2)OCCO3)c2cccnc21` here?
**A.** 704 s

**Q.** For `Cn1c(=O)c(SCC(=O)NCCN2CCCCC2)nc2ccccc21`, which RP-LC retention time is on record?
**A.** 594 s

**Q.** With `CCC(C)NC(=O)c1sc(-c2cn(C(C)C)c3ncccc23)nc1C` (stereo not drawn) as the molecule, how does the RP-LC retention time read?
**A.** 931 s

**Q.** With `CN(C)CCNC(=O)CN1C(=O)C2CCCCN2c2ccc(C(=O)N3CCCC3)cc21` (stereo not drawn) as the molecule, how does the RP-LC retention time read?
**A.** 596 s

**Q.** With `CCOc1ccc(Br)cc1C(=O)N1CCNC(=O)C1CC(=O)OC1CCCCC1` (stereo not drawn) as the molecule, how does the RP-LC retention time read?
**A.** 876 s

**Q.** With `Fc1ccc(OCc2nnc3sc(Cc4ccc5c(c4)OCCO5)nn23)cc1` as the molecule, how does the RP-LC retention time read?
**A.** 913 s

**Q.** For `O=C(NCc1ccc2c(c1)CCN2C(=O)c1ccccc1)C1CCN(S(=O)(=O)N2CCCC2)CC1`, which RP-LC retention time is on record?
**A.** 829 s

**Q.** Which RP-LC retention time does the source give for `COc1cccc(NC(=O)N2CCc3nc[nH]c3C2)c1` here?
**A.** 554 s

**Q.** Which RP-LC retention time does the source give for `CCc1noc2nc(C)n(CC(=O)NCCc3ccc(C)cc3)c(=O)c12` here?
**A.** 851 s

**Q.** With `Cc1noc(C)c1CCNC(=O)c1cn2ccccc2n1` as the molecule, how does the RP-LC retention time read?
**A.** 593 s

**Q.** For `COCCCn1c(=O)c2ccccc2n(Cc2nc(-c3cccc(OC)c3)no2)c1=O`, which RP-LC retention time is on record?
**A.** 1040 s

**Q.** For `Cc1nc(-c2ccccc2)sc1C(=O)N1CCCC1`, which RP-LC retention time is on record?
**A.** 824 s

**Q.** For `CC(=O)NCc1ccc(-c2noc(-c3cc(Cl)ccc3F)n2)s1`, which RP-LC retention time is on record?
**A.** 888 s

**Q.** Which RP-LC retention time does the source give for `O=C(Cc1nnc(-c2cnccn2)o1)Nc1cccc(F)c1` here?
**A.** 679 s

**Q.** Which RP-LC retention time does the source give for `Cc1ncc([N+](=O)[O-])n1CCOC(N)=O` here?
**A.** 624 s

**Q.** For `CC(C)CC(=O)Nc1ccc2c(c1)nc(CN1CCN(C(=O)c3ccco3)CC1)n2C`, which RP-LC retention time is on record?
**A.** 620 s

**Q.** For `Cc1ccc(Cn2cccc2C(=O)C(=O)NC2CC2)cc1`, which RP-LC retention time is on record?
**A.** 928 s

**Q.** Which RP-LC retention time does the source give for `O=C(O)/C=C\C(=O)Nc1ccc(-c2ccccc2)cc1` here?
**A.** 903 s

**Q.** With `COc1cc(OC)c(NC(=O)N2CCN(CCn3c(C(C)C)nc4cccnc43)CC2)cc1Cl` as the molecule, how does the RP-LC retention time read?
**A.** 618 s

**Q.** With `O=C(CCc1c(-c2ccc(F)cc2)nc2ccccn12)Nc1cccc(C(F)(F)F)c1` as the molecule, how does the RP-LC retention time read?
**A.** 752 s

**Q.** For `Cc1ccccc1CNC(=O)c1ccc2c(c1)n(C)c(=O)c1ccnn12`, which RP-LC retention time is on record?
**A.** 739 s

**Q.** Which RP-LC retention time does the source give for `Cc1ccc(Cl)cc1N1C(=O)CN(S(C)(=O)=O)CC1(C)C(=O)NC1CCCCC1` (stereo not drawn) here?
**A.** 880 s

**Q.** For `COc1ccc2cccc(NC(=O)c3c[nH]c4ccccc34)c2n1`, which RP-LC retention time is on record?
**A.** 986 s

**Q.** For `Cc1cc(C)c(CN2CC(CNC(=O)N3CCCC3)C3(CCOCC3)C2)c(C)c1` (stereo not drawn), which RP-LC retention time is on record?
**A.** 635 s

**Q.** For `CCCCN(CC)C(=O)C1CCCN(c2nc3cccnc3s2)C1` (stereo not drawn), which RP-LC retention time is on record?
**A.** 914 s

**Q.** With `Cc1nc(-c2ccnc(N3CCOCC3)c2)no1` as the molecule, how does the RP-LC retention time read?
**A.** 614 s

**Q.** With `Cc1cccc(-c2nnc(-c3cc(S(=O)(=O)N4CCCCC4)ccc3Cl)o2)c1` as the molecule, how does the RP-LC retention time read?
**A.** 1210 s

**Q.** With `CCNc1nc(-c2ccccc2F)no1` as the molecule, how does the RP-LC retention time read?
**A.** 761 s

**Q.** Which RP-LC retention time does the source give for `Cc1ccc(Cn2cc(CCC(=O)N3CCC(C(N)=O)CC3)c3ccccc32)cc1` here?
**A.** 813 s

**Q.** Which RP-LC retention time does the source give for `c1ccc2c(c1)CCN(c1ncnc3c1CCC3)C2` here?
**A.** 650 s

**Q.** Which RP-LC retention time does the source give for `Cc1nn(C)c(C)c1S(=O)(=O)N1CCC(n2c(C)cnc2-c2ccncc2)C1` (stereo not drawn) here?
**A.** 588 s

**Q.** Which RP-LC retention time does the source give for `COc1ccc2c(n1)Sc1nc3ccccc3nc1N2` here?
**A.** 1040 s

**Q.** For `COc1ccc(C)cc1NC(=O)N1c2ccccc2CC1c1nc(C2CC2)no1` (stereo not drawn), which RP-LC retention time is on record?
**A.** 1150 s

**Q.** For `COc1ccc(CNC(=O)c2ccc3c(c2)CC(=O)N3C)cc1`, which RP-LC retention time is on record?
**A.** 696 s

**Q.** Which RP-LC retention time does the source give for `CCC(=O)c1cn(CC(=O)NCc2ccc3c(c2)OCCCO3)c2ccccc12` here?
**A.** 794 s

**Q.** With `OC[C@H]1O[C@@H](n2cnc3c(NC4CCCC4)nc(Cl)nc32)[C@@H](O)C1O` (stereo partly drawn) as the molecule, how does the RP-LC retention time read?
**A.** 713 s

**Q.** For `CCN1C(=O)c2ccccc2Oc2ccc(C(=O)NCc3cc(OC)ccc3OC)cc21`, which RP-LC retention time is on record?
**A.** 932 s

**Q.** Which RP-LC retention time does the source give for `O=C(Cc1csc(NC(=O)C2CC2)n1)Nc1ccc(Cl)c(Cl)c1` here?
**A.** 827 s

**Q.** For `CCOC(=O)C1CCN(c2cc3c(cc2NC(=O)C2CCCCC2)n(C)c(=O)c(=O)n3C)CC1`, which RP-LC retention time is on record?
**A.** 906 s

**Q.** With `COCCN1C(=O)CCC2(CNC(=O)c3cnc(C)cn3)CCC=C12` (stereo not drawn) as the molecule, how does the RP-LC retention time read?
**A.** 676 s

**Q.** With `Cc1cccc(NC(=O)N2CCc3c(c(-c4nnc(-c5ccc(F)cc5)o4)nn3C)C2)c1C` as the molecule, how does the RP-LC retention time read?
**A.** 854 s

**Q.** With `O=C1CCc2cc(S(=O)(=O)NCCc3ccccc3)cc3c2N1CCC3` as the molecule, how does the RP-LC retention time read?
**A.** 840 s

**Q.** With `O=C(C1=NNc2ccccc2S1(=O)=O)N1CCCCC1` as the molecule, how does the RP-LC retention time read?
**A.** 773 s

**Q.** With `CC(C)NC(=O)c1ccc(OCC2CCN(C(=O)c3ccsc3)CC2)cc1` as the molecule, how does the RP-LC retention time read?
**A.** 797 s

**Q.** Which RP-LC retention time does the source give for `Cc1noc(C)c1S(=O)(=O)N1CCCC(c2nc(CNC(=O)C(C)C)cs2)C1` (stereo not drawn) here?
**A.** 796 s

**Q.** Which RP-LC retention time does the source give for `Cc1cccc(C)c1NC(=O)Cn1nc2n(c1=O)CCCC2` here?
**A.** 632 s

**Q.** With `O=C(COc1ccc(F)cc1)N1CCCCC1CCN1CCCCC1` (stereo not drawn) as the molecule, how does the RP-LC retention time read?
**A.** 648 s

**Q.** For `O=C(COc1ccc(F)cc1)N1CCN(c2nc(CN3CCCCC3)cs2)CC1`, which RP-LC retention time is on record?
**A.** 655 s

**Q.** For `CN(C(=O)Cn1cnc2c(-c3ccc(Cl)cc3)csc2c1=O)c1ccc(F)cc1`, which RP-LC retention time is on record?
**A.** 1180 s

**Q.** Which RP-LC retention time does the source give for `O=C(Nc1cccc(-c2ccc3nnc(-c4cccs4)n3n2)c1)C1CCCC1` here?
**A.** 792 s

**Q.** Which RP-LC retention time does the source give for `Cc1nc2cc(-c3noc(CCc4ccccc4)n3)ccc2o1` here?
**A.** 1050 s

**Q.** With `CNC(=O)c1cccc(Nc2c(-c3ccc(N(C)C)cc3)nc3cnccn23)c1` as the molecule, how does the RP-LC retention time read?
**A.** 610 s

**Q.** With `CCNC(=O)c1c2c(nc3ccccc13)CCC2` as the molecule, how does the RP-LC retention time read?
**A.** 573 s

**Q.** For `COc1ccc(OC)c(Nc2c(-c3ccc(C)cc3)nc3cnccn23)c1`, which RP-LC retention time is on record?
**A.** 911 s

**Q.** With `CCOc1ccc(S(=O)(=O)N2CCc3c(c(-c4nnc(-c5ccccc5)o4)nn3C)C2)cc1` as the molecule, how does the RP-LC retention time read?
**A.** 996 s

**Q.** Which RP-LC retention time does the source give for `O=C(NCc1ccc(F)cc1)C(=O)NCC(c1ccc2c(c1)OCO2)N1CCOCC1` (stereo not drawn) here?
**A.** 648 s

**Q.** Which RP-LC retention time does the source give for `CC(C)C(NC(=O)NCc1ccc(F)cc1)C(=O)N1CCc2ccccc21` (stereo not drawn) here?
**A.** 917 s

**Q.** With `O=C(CN1CCCC(COCc2ccccc2)C1)N1CCN(c2ccccc2)CC1` (stereo not drawn) as the molecule, how does the RP-LC retention time read?
**A.** 620 s

**Q.** With `Cc1ccc2nc(NC(=O)CSc3nnc(CNC(=O)c4ccco4)o3)sc2c1` as the molecule, how does the RP-LC retention time read?
**A.** 705 s

**Q.** With `Cc1ccc(Sc2nccnc2N2CCCC(C(=O)NCc3ccccc3Cl)C2)cc1` (stereo not drawn) as the molecule, how does the RP-LC retention time read?
**A.** 1150 s

**Q.** For `COc1cc(NC(=O)CN2CCN(Cc3ccc(C)cc3)C(=O)C2=O)cc(OC)c1OC`, which RP-LC retention time is on record?
**A.** 709 s

**Q.** For `COc1ccc(-c2cn3c(C(=O)Nc4ccc5c(c4)OCCO5)csc3n2)cc1`, which RP-LC retention time is on record?
**A.** 813 s

**Q.** For `O=C(NCc1ccco1)C1CCCN(c2ccc(-c3ccccc3)nn2)C1` (stereo not drawn), which RP-LC retention time is on record?
**A.** 654 s

**Q.** For `CCOC(=O)c1nc(Nc2cc(Cl)c(OC)cc2OC)c2ccccc2n1`, which RP-LC retention time is on record?
**A.** 964 s

**Q.** For `CCCCNC(=O)Cn1c(=O)cc(-c2nc(C3CC3)no2)c2ccccc21`, which RP-LC retention time is on record?
**A.** 874 s
